From paper PMC5415086 (Nature, 2010)

How the values were obtained:
[1] = test system: other bromodomain-containing proteins from each arm of the phylogeny tree; assay: interaction with other bromodomain-containing proteins; assay type: binding; details: selectivity
[2] = test system: panel of 38 unrelated proteins; assay: activity towards a panel of unrelated proteins; details: selectivity
[3] = test system: bone marrow-derived macrophages (BMDMs); assay: LPS-inducible gene expression in macrophages; assay type: cell-based, C57BL/6 mice; details: for number of LPS-inducible genes down-regulated: I-BET 1 μM, >2 fold
[4] = test system: bone marrow-derived macrophages (BMDMs); assay: gene transcription in BMDMs without LPS stimulation; assay type: cell-based, C57BL/6 mice; details: absence of LPS stimulation
[5] = test system: bone marrow-derived macrophages (BMDMs); assay: LPS-induced signalling; assay type: cell-based, C57BL/6 mice; details: I-BET treated cells
[6] = test system: bone marrow-derived macrophages (BMDMs); assay: viability of BMDMs; assay type: cell-based, C57BL/6 mice
pCAF = pCAF (Homo sapiens, UniProt Q92831); assay: histone acetyltransferase; assay type: biochemical
p300 = p300 (Homo sapiens, UniProt Q09472); assay: histone acetyltransferase; assay type: biochemical
GCN5 = GCN5 (Homo sapiens, UniProt Q92830); assay: histone acetyltransferase; assay type: biochemical
CBP = CBP (Homo sapiens, UniProt Q92793); assay: histone acetyltransferase; assay type: biochemical
[7] = test system: il6 promoter in bone marrow-derived macrophages; assay: ChIP of epigenetic marks at gene promoters in LPS-stimulated macrophages; assay type: cell-based, C57BL/6 mice; details: I-BET 5 μM
[8] = test system: bone marrow-derived macrophages (BMDMs); assay type: cell-based, C57BL/6 mice; details: BMDM treatment with the HDAC inhibitor

CBP, sequence (Q92793 whole entry): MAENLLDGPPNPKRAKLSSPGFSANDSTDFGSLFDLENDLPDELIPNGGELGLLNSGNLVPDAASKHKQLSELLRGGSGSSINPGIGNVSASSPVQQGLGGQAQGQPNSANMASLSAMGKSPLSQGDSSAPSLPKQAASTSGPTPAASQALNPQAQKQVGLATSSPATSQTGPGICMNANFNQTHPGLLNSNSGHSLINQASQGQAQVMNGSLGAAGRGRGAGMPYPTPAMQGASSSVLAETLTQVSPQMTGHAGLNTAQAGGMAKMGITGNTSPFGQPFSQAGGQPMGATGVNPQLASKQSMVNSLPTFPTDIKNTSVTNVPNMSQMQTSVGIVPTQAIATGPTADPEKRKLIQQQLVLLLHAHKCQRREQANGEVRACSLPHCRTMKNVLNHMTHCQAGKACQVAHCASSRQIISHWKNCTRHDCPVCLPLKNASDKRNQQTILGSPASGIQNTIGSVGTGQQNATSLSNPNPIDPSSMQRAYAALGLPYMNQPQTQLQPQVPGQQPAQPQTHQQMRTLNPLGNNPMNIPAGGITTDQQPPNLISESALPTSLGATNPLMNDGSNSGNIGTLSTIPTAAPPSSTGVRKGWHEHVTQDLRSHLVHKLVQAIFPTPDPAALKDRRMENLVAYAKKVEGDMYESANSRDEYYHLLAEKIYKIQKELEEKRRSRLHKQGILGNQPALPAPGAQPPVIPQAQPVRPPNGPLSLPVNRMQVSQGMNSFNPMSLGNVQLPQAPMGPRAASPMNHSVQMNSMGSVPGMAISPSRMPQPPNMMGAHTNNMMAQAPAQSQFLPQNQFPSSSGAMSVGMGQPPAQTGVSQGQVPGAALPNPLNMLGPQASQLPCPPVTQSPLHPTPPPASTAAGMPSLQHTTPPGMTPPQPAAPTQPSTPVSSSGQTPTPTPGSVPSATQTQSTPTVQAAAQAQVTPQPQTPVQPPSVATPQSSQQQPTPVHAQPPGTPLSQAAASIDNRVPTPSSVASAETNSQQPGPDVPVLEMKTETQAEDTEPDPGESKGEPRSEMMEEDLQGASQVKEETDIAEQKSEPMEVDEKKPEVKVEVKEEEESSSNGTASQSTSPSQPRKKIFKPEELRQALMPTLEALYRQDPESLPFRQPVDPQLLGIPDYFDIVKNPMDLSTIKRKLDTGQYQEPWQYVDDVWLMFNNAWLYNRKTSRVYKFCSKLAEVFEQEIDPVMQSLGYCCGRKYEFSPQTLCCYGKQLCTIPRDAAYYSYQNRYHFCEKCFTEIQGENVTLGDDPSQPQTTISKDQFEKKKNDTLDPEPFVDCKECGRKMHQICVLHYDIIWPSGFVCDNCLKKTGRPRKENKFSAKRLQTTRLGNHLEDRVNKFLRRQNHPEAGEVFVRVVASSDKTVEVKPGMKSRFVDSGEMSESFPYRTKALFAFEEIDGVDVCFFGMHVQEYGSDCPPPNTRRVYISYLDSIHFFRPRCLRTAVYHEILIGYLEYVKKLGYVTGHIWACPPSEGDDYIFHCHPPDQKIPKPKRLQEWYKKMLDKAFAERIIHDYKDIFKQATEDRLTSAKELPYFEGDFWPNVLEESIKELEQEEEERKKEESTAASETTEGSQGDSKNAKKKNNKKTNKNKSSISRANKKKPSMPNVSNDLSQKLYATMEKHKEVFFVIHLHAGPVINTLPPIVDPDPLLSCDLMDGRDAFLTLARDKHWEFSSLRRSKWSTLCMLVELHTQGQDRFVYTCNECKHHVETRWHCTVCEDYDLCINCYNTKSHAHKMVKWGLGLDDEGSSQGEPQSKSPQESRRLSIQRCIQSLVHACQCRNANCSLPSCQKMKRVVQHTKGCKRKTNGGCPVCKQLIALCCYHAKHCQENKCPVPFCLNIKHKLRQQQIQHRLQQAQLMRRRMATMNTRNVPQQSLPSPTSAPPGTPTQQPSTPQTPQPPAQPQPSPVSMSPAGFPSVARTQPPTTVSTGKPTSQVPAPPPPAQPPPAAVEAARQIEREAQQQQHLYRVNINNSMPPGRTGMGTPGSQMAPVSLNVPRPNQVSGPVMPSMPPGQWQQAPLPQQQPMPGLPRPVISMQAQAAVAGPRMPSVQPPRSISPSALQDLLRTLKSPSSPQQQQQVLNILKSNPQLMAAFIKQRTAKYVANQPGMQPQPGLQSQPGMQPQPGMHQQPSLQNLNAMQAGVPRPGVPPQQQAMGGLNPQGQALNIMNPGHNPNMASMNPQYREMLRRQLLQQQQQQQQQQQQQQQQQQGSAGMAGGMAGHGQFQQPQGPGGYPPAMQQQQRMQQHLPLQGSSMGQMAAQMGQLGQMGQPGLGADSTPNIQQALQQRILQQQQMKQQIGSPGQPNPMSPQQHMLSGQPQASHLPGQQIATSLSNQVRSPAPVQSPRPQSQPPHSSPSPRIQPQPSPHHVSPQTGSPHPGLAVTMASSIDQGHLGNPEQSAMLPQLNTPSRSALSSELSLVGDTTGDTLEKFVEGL
pCAF, sequence (Q92831 whole entry, species assumed): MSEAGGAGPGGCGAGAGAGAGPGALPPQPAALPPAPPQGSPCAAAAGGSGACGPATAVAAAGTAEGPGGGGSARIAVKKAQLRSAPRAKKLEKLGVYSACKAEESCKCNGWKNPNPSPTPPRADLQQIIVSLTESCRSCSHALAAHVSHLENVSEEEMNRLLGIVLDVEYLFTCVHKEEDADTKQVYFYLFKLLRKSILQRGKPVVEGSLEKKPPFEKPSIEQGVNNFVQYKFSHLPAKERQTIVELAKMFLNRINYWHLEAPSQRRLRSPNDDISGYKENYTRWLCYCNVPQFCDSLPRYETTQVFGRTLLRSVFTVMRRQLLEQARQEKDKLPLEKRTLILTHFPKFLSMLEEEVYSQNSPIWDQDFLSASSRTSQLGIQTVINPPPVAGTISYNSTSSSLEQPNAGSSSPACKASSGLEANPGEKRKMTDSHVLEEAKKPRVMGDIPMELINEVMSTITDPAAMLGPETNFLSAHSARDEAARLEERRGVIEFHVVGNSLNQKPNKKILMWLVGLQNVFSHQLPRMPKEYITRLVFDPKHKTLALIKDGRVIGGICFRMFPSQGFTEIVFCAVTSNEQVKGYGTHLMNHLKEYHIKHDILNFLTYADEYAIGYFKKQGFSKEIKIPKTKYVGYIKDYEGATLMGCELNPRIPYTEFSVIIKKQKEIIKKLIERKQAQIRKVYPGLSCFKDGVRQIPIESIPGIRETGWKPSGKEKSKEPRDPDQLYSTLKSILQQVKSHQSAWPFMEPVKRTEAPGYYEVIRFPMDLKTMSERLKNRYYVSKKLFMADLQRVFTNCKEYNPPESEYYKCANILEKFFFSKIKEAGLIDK
GCN5, sequence (Q92830 whole entry, species assumed): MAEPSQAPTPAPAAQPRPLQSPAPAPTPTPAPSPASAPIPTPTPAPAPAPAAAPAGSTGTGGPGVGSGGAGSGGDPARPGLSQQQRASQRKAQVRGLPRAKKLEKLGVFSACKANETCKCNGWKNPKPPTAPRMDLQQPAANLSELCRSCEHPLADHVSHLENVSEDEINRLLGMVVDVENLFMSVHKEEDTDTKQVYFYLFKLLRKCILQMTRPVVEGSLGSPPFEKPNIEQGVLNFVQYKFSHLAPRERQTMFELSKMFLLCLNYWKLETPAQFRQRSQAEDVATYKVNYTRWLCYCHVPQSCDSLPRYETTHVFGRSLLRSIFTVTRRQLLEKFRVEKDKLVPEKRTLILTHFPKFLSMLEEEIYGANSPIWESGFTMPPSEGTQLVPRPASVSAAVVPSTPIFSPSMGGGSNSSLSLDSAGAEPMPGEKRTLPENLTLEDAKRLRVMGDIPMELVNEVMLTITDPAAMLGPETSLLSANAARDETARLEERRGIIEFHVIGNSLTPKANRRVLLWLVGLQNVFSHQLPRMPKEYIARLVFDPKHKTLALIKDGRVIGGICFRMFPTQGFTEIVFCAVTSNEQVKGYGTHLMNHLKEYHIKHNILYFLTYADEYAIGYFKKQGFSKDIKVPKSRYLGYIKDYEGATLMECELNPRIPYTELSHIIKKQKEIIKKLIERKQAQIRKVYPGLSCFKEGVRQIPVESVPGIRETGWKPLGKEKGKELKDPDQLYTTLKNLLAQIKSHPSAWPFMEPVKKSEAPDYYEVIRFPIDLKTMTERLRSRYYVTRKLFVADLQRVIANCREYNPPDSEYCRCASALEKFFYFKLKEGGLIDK

SMILES: CCNC(=O)C[C@@H]1N=C(c2ccc(Cl)cc2)c2cc(OC)ccc2-n2c(C)nnc21 [I-BET]
- interaction with other bromodomain-containing proteins [1]: did not interact
- activity towards a panel of 38 unrelated proteins [2]: no activity
- number of LPS-inducible genes down-regulated ([3]; 1 hour after LPS): 38
- number of LPS-inducible genes down-regulated ([3]; 4 hours after LPS): 151
- expression of tnf, ccl2-5, cxcl1/2 ([3]; LPS-stimulated BMDMs): not affected
- effect on gene transcription [4]: marginal effect
- LPS-induced ERK phosphorylation and IκBα degradation [5]: unaltered pattern
- effect on viability of BMDMs [6]: no effect
- suppression of HAT activity (pCAF): inability of I-BET to suppress the activity
- suppression of HAT activity (p300): inability of I-BET to suppress the activity
- suppression of HAT activity (GCN5): inability of I-BET to suppress the activity
- suppression of HAT activity (CBP): inability of I-BET to suppress the activity
- BET recruitment at il6 promoter [7]: marked reduction

SMILES: CC(/C=C/C(=O)NO)=C\[C@@H](C)C(=O)c1ccc(N(C)C)cc1 [trichostatin A]
- conversion of sI-BET genes into naI-BET genes [8]: able to “convert” sI-BET into naI-BET genes
